Key:
Test in all cases: Test G preemergence/postemergence greenhouse plant response rating 0 to 100
alfalfa = format: in vivo, Medicago ativa; conditions: 0 to 100 scale
From the text: (§1) Seeds, rhizomes, or plant parts of alfalfa (Medicago ativa), annual bluegrass (Poa annua), bermudagrass (Cynodon dactylon), broadleaf signalgrass (Brachiaria plantaginea), common purslane (Portulaca oleracea), common ragweed (Ambrosia elatior), […] (Paspalum dilatatum), goosegrass (Eleusine indica), guineagrass (Panicum maximum), […] exaltata), johnsongrass (Sorghum halepense), large crabgrass (Digitaria sanguinalis), peanut (Arachis hypoagaea), pitted morningglory (Ipomoea lacunosa), purple nutsedge (Cyperus rotundus), sandbur (Cenchrus echinatus), smooth crabgrass (Digitaria ischaemum) and yellow nutsedge (Cyperus esculentus) were planted into greenhouse pots containing greenhouse planting medium. Each pot contained only one plant species. The test compound was dissolved in a non-phytotoxic solvent and applied preemergence and/or postemergence to the plants. Preemergence applications were made within one day of planting the seeds or plant parts. Postemergence applications were applied when the plants were in the two to four leaf stage (three to twenty cm). Test chemicals were dissolved in a non-phytotoxic solvent and applied preemergence and postemergence to the plants. Untreated control plants and treated plants were placed in the greenhouse and visually evaluated for injury at 13 to 21 days after herbicide application. […] A dash (-) response indicates no test result.

peanut = format: in vivo, Arachis hypoagaea; conditions: 0 to 100 scale
From the text: as §1

purple nutsedge = format: in vivo, Cyperus rotundus; conditions: Rate 125 g/ha, 0 to 100 scale
From the text: as §1

broadleaf signalgrass = format: in vivo, Brachiaria plantaginea; conditions: 0 to 100 scale
From the text: as §1

common purslane = format: in vivo, Portulaca oleracea; conditions: 0 to 100 scale
From the text: as §1

goosegrass = format: in vivo, Eleusine indica; conditions: 0 to 100 scale
From the text: as §1

common ragweed = format: in vivo, Ambrosia elatior; conditions: 0 to 100 scale
From the text: as §1

yellow nutsedge = format: in vivo, Cyperus esculentus; conditions: Rate 125 g/ha, 0 to 100 scale
From the text: as §1

smooth crabgrass = format: in vivo, Digitaria ischaemum; conditions: 0 to 100 scale
From the text: as §1

large crabgrass = format: in vivo, Digitaria sanguinalis; conditions: 0 to 100 scale
From the text: as §1

pitted morningglory = format: in vivo, Ipomoea lacunosa; conditions: 0 to 100 scale
From the text: as §1

dallisgrass = format: in vivo, Paspalum dilatatum; conditions: 0 to 100 scale
From the text: as §1

annual bluegrass = format: in vivo, Poa annua; conditions: 0 to 100 scale
From the text: as §1

itchgrass = format: in vivo, Rottboellia exaltata; conditions: 0 to 100 scale
From the text: as §1

johnsongrass = format: in vivo, Sorghum halepense; conditions: 0 to 100 scale
From the text: as §1

guineagrass = format: in vivo, Panicum maximum; conditions: 0 to 100 scale
From the text: as §1

bermudagrass = format: in vivo, Cynodon dactylon; conditions: 0 to 100 scale
From the text: as §1

Fc1cc(Cl)c(OCc2ccccc2)cc1-c1nn2c(c1Cl)CCCC2 [Compound 22]
70: Plant response rating, Cmn Purslane (common purslane; POSTEMERGENCE, Rate 250 g/ha) | Plant response rating, Cmn Ragweed (common ragweed; POSTEMERGENCE, Rate 125 g/ha)
80: Plant response rating, Cmn Purslane (common purslane; POSTEMERGENCE, Rate 125 g/ha)
20: Plant response rating, Cmn Ragweed (common ragweed; POSTEMERGENCE, Rate 250 g/ha) | Plant response rating, Pit Morninglory (pitted morningglory; POSTEMERGENCE, Rate 125 g/ha) | Plant response rating, Bermudagrass (bermudagrass; POSTEMERGENCE, Rate 125 g/ha)
0: Plant response rating, Alfalfa Var. (alfalfa; POSTEMERGENCE, Rate 125 g/ha) | Plant response rating, Alfalfa Var. (alfalfa; POSTEMERGENCE, Rate 250 g/ha) | Plant response rating, Alfalfa Var. (alfalfa; PREEMERGENCE, Rate 125 g/ha) | Plant response rating, Alfalfa Var. (alfalfa; PREEMERGENCE, Rate 250 g/ha) | Plant response rating, Peanuts (peanut; POSTEMERGENCE, Rate 125 g/ha) | Plant response rating, Peanuts (peanut; POSTEMERGENCE, Rate 250 g/ha) | Plant response rating, Peanuts (peanut; PREEMERGENCE, Rate 125 g/ha) | Plant response rating, Peanuts (peanut; PREEMERGENCE, Rate 250 g/ha) | Plant response rating, Purple Nutsedge (purple nutsedge; POSTEMERGENCE) | Plant response rating, Purple Nutsedge (purple nutsedge; PREEMERGENCE) | Plant response rating, Brdlf Sgnlgrass (broadleaf signalgrass; POSTEMERGENCE, Rate 125 g/ha) | Plant response rating, Brdlf Sgnlgrass (broadleaf signalgrass; POSTEMERGENCE, Rate 250 g/ha) | Plant response rating, Brdlf Sgnlgrass (broadleaf signalgrass; PREEMERGENCE, Rate 125 g/ha) | Plant response rating, Brdlf Sgnlgrass (broadleaf signalgrass; PREEMERGENCE, Rate 250 g/ha) | Plant response rating, Cmn Purslane (common purslane; PREEMERGENCE, Rate 125 g/ha) | Plant response rating, Cmn Purslane (common purslane; PREEMERGENCE, Rate 250 g/ha) | Plant response rating, Goosegrass (goosegrass; POSTEMERGENCE, Rate 125 g/ha) | Plant response rating, Goosegrass (goosegrass; POSTEMERGENCE, Rate 250 g/ha) | Plant response rating, Goosegrass (goosegrass; PREEMERGENCE, Rate 125 g/ha) | Plant response rating, Goosegrass (goosegrass; PREEMERGENCE, Rate 250 g/ha) | Plant response rating, Cmn Ragweed (common ragweed; PREEMERGENCE, Rate 125 g/ha) | Plant response rating, Cmn Ragweed (common ragweed; PREEMERGENCE, Rate 250 g/ha) | Plant response rating, Yellow Nutsedge (yellow nutsedge; POSTEMERGENCE) | Plant response rating, Yellow Nutsedge (yellow nutsedge; PREEMERGENCE) | Plant response rating, Smooth Crabgras (smooth crabgrass; POSTEMERGENCE, Rate 125 g/ha) | Plant response rating, Smooth Crabgras (smooth crabgrass; POSTEMERGENCE, Rate 250 g/ha) | Plant response rating, Smooth Crabgras (smooth crabgrass; PREEMERGENCE, Rate 125 g/ha) | Plant response rating, Smooth Crabgras (smooth crabgrass; PREEMERGENCE, Rate 250 g/ha) | Plant response rating, Large Crabgrass (large crabgrass; POSTEMERGENCE, Rate 125 g/ha) | Plant response rating, Large Crabgrass (large crabgrass; POSTEMERGENCE, Rate 250 g/ha) | Plant response rating, Large Crabgrass (large crabgrass; PREEMERGENCE, Rate 125 g/ha) | Plant response rating, Large Crabgrass (large crabgrass; PREEMERGENCE, Rate 250 g/ha) | Plant response rating, Pit Morninglory (pitted morningglory; POSTEMERGENCE, Rate 250 g/ha) | Plant response rating, Pit Morninglory (pitted morningglory; PREEMERGENCE, Rate 125 g/ha) | Plant response rating, Pit Morninglory (pitted morningglory; PREEMERGENCE, Rate 250 g/ha) | Plant response rating, Dallisgrass (dallisgrass; POSTEMERGENCE, Rate 125 g/ha) | Plant response rating, Dallisgrass (dallisgrass; POSTEMERGENCE, Rate 250 g/ha) | Plant response rating, Dallisgrass (dallisgrass; PREEMERGENCE, Rate 125 g/ha) | Plant response rating, Dallisgrass (dallisgrass; PREEMERGENCE, Rate 250 g/ha) | Plant response rating, Ann Bluegrass (annual bluegrass; POSTEMERGENCE, Rate 125 g/ha) | Plant response rating, Ann Bluegrass (annual bluegrass; POSTEMERGENCE, Rate 250 g/ha) | Plant response rating, Ann Bluegrass (annual bluegrass; PREEMERGENCE, Rate 125 g/ha) | Plant response rating, Ann Bluegrass (annual bluegrass; PREEMERGENCE, Rate 250 g/ha) | Plant response rating, Itchgrass (itchgrass; POSTEMERGENCE, Rate 125 g/ha) | Plant response rating, Itchgrass (itchgrass; POSTEMERGENCE, Rate 250 g/ha) | Plant response rating, Itchgrass (itchgrass; PREEMERGENCE, Rate 125 g/ha) | Plant response rating, Itchgrass (itchgrass; PREEMERGENCE, Rate 250 g/ha) | Plant response rating, Johnsongrass (johnsongrass; POSTEMERGENCE, Rate 125 g/ha) | Plant response rating, Johnsongrass (johnsongrass; POSTEMERGENCE, Rate 250 g/ha) | Plant response rating, Johnsongrass (johnsongrass; PREEMERGENCE, Rate 125 g/ha) | Plant response rating, Johnsongrass (johnsongrass; PREEMERGENCE, Rate 250 g/ha) | Plant response rating, Guineagrass (guineagrass; POSTEMERGENCE, Rate 125 g/ha) | Plant response rating, Guineagrass (guineagrass; POSTEMERGENCE, Rate 250 g/ha) | Plant response rating, Guineagrass (guineagrass; PREEMERGENCE, Rate 125 g/ha) | Plant response rating, Guineagrass (guineagrass; PREEMERGENCE, Rate 250 g/ha) | Plant response rating, Bermudagrass (bermudagrass; POSTEMERGENCE, Rate 250 g/ha) | Plant response rating, Bermudagrass (bermudagrass; PREEMERGENCE, Rate 125 g/ha) | Plant response rating, Bermudagrass (bermudagrass; PREEMERGENCE, Rate 250 g/ha)

From patent publication US6358885B1, “Substituted phenylheterocyclic herbicides” (Mississippi State University, priority 1992, dated 2002)
